Measured values reported in the supplement of paper PMC10307832.

Legend:
Assay in all cases: relative viability (nuclei count vs DMSO), 5 days (fraction); higher = more cells survive
Vorinostat + OSI-027 = compound: O=C(CCCCCCC(=O)Nc1ccccc1)NO [Vorinostat] + COc1cccc2cc(-c3nc([C@H]4CC[C@H](C(=O)O)CC4)n4ncnc(N)c34)[nH]c12 [OSI-027] (partner 0.5 µM)
Method in brief: (§1)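 After 5 days of treatment, lung cancer cells in 1536-well plates were fixed and stained in a single step (final 0.05% Triton X-100, 1% formaldehyde, 1 ug/ml Hoechst) and their nuclei counted on 4× images. Treatment had been applied by pin tool the day after seeding as one drug alone or as a fixed anchor-drug dose with five library-drug doses (not always all listed) in √10 steps. Relative viability is the nuclei count of treated wells divided by that of vehicle wells, and values are medians of duplicate plates.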

Vorinostat + Lapatinib = compound: O=C(CCCCCCC(=O)Nc1ccccc1)NO [Vorinostat] + CS(=O)(=O)CCNCc1ccc(-c2ccc3ncnc(Nc4ccc(OCc5cccc(F)c5)c(Cl)c4)c3c2)o1 [Lapatinib] (partner 2 µM)
Method in brief: as §1

Vorinostat + Linsitinib = compound: O=C(CCCCCCC(=O)Nc1ccccc1)NO [Vorinostat] + C[C@]1(O)C[C@@H](c2nc(-c3ccc4ccc(-c5ccccc5)nc4c3)c3c(N)nccn32)C1 [Linsitinib] (partner 1 µM)
Method in brief: as §1

Vorinostat + Dasatinib = compound: O=C(CCCCCCC(=O)Nc1ccccc1)NO [Vorinostat] + Cc1nc(Nc2ncc(C(=O)Nc3c(C)cccc3Cl)s2)cc(N2CCN(CCO)CC2)n1 [Dasatinib] (partner 0.075 µM)
Method in brief: as §1

Row | Cell Line | relative viability (Vorinostat + OSI-027; first compound 0.253 µM) | relative viability (Vorinostat + OSI-027; first compound 0.8 µM) | relative viability (Vorinostat + OSI-027; first compound 2.53 µM) | relative viability (Vorinostat + OSI-027; first compound 8 µM) | relative viability (Vorinostat + Lapatinib; first compound 0.253 µM) | relative viability (Vorinostat + Lapatinib; first compound 0.8 µM) | relative viability (Vorinostat + Lapatinib; first compound 2.53 µM) | relative viability (Vorinostat + Lapatinib; first compound 8 µM) | relative viability (Vorinostat + Linsitinib; first compound 0.253 µM) | relative viability (Vorinostat + Linsitinib; first compound 0.8 µM) | relative viability (Vorinostat + Linsitinib; first compound 2.53 µM) | relative viability (Vorinostat + Linsitinib; first compound 8 µM) | relative viability (Vorinostat + Dasatinib; first compound 0.253 µM) | relative viability (Vorinostat + Dasatinib; first compound 0.8 µM) | relative viability (Vorinostat + Dasatinib; first compound 2.53 µM) | relative viability (Vorinostat + Dasatinib; first compound 8 µM)
1 | NCI-H2023 | 0.473 | 0.359 | 0.134 | 0.0617 | 1.01 | 0.597 | 0.186 | 0.0723 | 0.841 | 0.682 | 0.296 | 0.0892 | 0.872 | 0.49 | 0.134 | 0.061
2 | HOP-62 | 0.985 | 0.649 | 0.378 | 0.0983 | 1.25 | 0.572 | 0.516 | 0.0547 | 1.17 | 0.769 | 0.528 | 0.0603 | 0.888 | 0.501 | 0.225 | 0.0813
3 | NCI-H2087 | 0.746 | 0.417 | 0.106 | 0.063 | 1.23 | 0.962 | 0.352 | 0.178 | 0.974 | 1.03 | 0.474 | 0.159 | 0.94 | 0.553 | 0.124 | 0.0691
4 | SK-LU-1 | 0.407 | 0.377 | 0.204 | 0.116 | 1.05 | 0.738 | 0.449 | 0.16 | 1.11 | 1.02 | 0.64 | 0.211 | 0.192 | 0.208 | 0.133 | 0.0924
5 | NCI-H1755 | 0.734 | 0.681 | 0.384 | 0.185 | 1.05 | 1.03 | 0.28 | 0.154 | 1.07 | 1.05 | 0.512 | 0.188 | 0.447 | 0.469 | 0.254 | 0.139
6 | NCI-H1395 | 0.647 | 0.597 | 0.418 | 0.352 | 1.26 | 0.906 | 0.671 | 0.371 | 1.31 | 1.22 | 0.725 | 0.344 | 0.395 | 0.434 | 0.365 | 0.344
7 | SW 900 | 0.49 | 0.472 | 0.227 | 0.0866 |  |  |  |  |  |  |  |  | 0.679 | 0.739 | 0.249 | 0.118
8 | NCI-H1793 | 0.328 | 0.32 | 0.302 | 0.151 | 0.588 | 0.613 | 0.375 | 0.162 | 0.781 | 0.95 | 0.703 | 0.215 | 0.491 | 0.433 | 0.351 | 0.135
9 | NCI-H727 | 0.682 | 0.574 | 0.477 | 0.393 | 0.632 | 0.736 | 0.335 | 0.227 | 0.236 | 0.351 | 0.15 | 0.289 | 0.486 | 0.423 | 0.262 | 0.206
10 | LCLC-103H | 0.545 | 0.502 | 0.429 | 0.143 |  |  |  |  | 1.18 | 0.999 | 0.597 | 0.172 | 0.504 | 0.533 | 0.339 | 0.134
11 | EKVX | 0.623 | 0.659 | 0.39 | 0.132 | 0.217 | 0.209 | 0.173 | 0.107 | 1.14 | 1.04 | 0.515 | 0.141 | 0.535 | 0.528 | 0.236 | 0.179
12 | LXF-289 | 0.969 | 0.761 | 0.407 | 0.0564 | 0.985 | 0.859 | 0.468 | 0.116 | 1.03 | 0.994 | 0.391 | 0.108 | 0.316 | 0.347 | 0.226 | 0.0398
13 | HCC-827 | 0.923 | 0.853 | 0.743 | 0.259 | 0.219 | 0.204 | 0.155 | 0.161 | 1.01 | 1.04 | 0.837 | 0.21 | 0.299 | 0.334 | 0.382 | 0.314
14 | A549 |  |  |  |  | 1.02 | 0.572 | 0.168 | 0.0602 | 0.673 | 0.651 | 0.194 | 0.0382 |  |  |  | 
15 | NCI-H3122 | 1.26 | 1.1 | 0.135 | 0.129 | 1.03 | 0.981 | 0.939 | 0.167 | 1.12 | 1.05 | 0.605 | 0.142 | 1.11 | 0.69 | 0.0421 | 0.0399
16 | HCC-15 | 0.698 | 0.487 | 0.269 | 0.0848 | 0.941 | 0.852 | 0.569 | 0.129 | 0.87 | 0.917 | 0.514 | 0.0962 | 0.748 | 0.589 | 0.225 | 0.06
17 | NCI-H441 | 0.705 | 0.576 | 0.229 | 0.194 |  |  |  |  | 0.501 | 0.619 | 0.255 | 0.117 | 0.846 | 0.557 | 0.285 | 0.138
18 | HCC-78 | 0.346 | 0.32 | 0.224 | 0.234 | 0.705 | 0.455 | 0.249 | 0.155 | 0.547 | 0.238 | 0.135 | 0.107 | 0.371 | 0.398 | 0.211 | 0.2
19 | H3255 | 0.669 | 0.694 | 0.478 | 0.289 | 0.24 | 0.17 | 0.141 | 0.101 | 1.01 | 0.941 | 0.589 | 0.247 | 0.396 | 0.342 | 0.309 | 0.301
20 | NCI-H2170 | 0.78 | 0.759 | 0.569 | 0.144 | 0.283 | 0.273 | 0.238 | 0.198 |  |  |  |  | 0.68 | 0.459 | 0.355 | 0.14
21 | HCC-44 | 0.611 | 0.281 | 0.103 | 0.254 | 1.03 | 0.985 | 0.508 | 0.111 | 0.727 | 0.621 | 0.167 | 0.103 |  |  |  | 
22 | NCI-H522 | 0.8 | 0.617 | 0.591 | 0.247 |  |  |  |  |  |  |  |  | 0.895 | 0.99 | 0.344 | 0.239
23 | IA-LM |  |  |  |  | 0.765 | 0.636 | 0.247 | 0.073 | 0.685 | 0.271 | 0.212 | 0.0566 |  |  |  | 
